Measurements taken from patent publication US20250114345A1, “COMPOUNDS AND COMPOSITIONS AS CBP/P300 DEGRADERS AND USES THEREOF” (Oncopia Therapeutics, Inc. d/b/a/ SK Life Science Labs, priority 2023, published 2025).

Target: T1, p300 (Homo sapiens, UniProt Q09472)
T1 construct: host or cells: A549 P300 HiBit cells
Assay: P300 degradation, HiBit technology in A549 P300 HiBit cells (2 h)
Format: cell-based
Conditions: 2 hrs post treatment; for Dmax: A549, A549 P300 HiBit cells; for DC50: A549 P300 HiBit cells
Description: p300 and CBP degradation potency and Dmax were determined using in cell western (ICW) assay technology in H1299 cells or HiBit technology in A549 HiBit cells.
A549 P300 HiBit and A549 CBP HiBit cells were plated in separate 384-well, TC treated, white-opaque, flat-bottomed microplate. Cells were plated at a cell density of 0.2×10^4 cells per well in assay media comprised of F-12K, 10% heat inactivated FBS, and 1% penicillin/streptomycin. Assay microplates containing HiBit cells were placed in a 37° C., 5% CO2, tissue culture incubator and left to equilibrate overnight. The next day cells were treated with serial dilutions of test compound made up of 10 mM stock solutions in DMSO. 384-Well plates containing treated cells were then placed back into a 37° C., 5% CO2, tissue culture incubator. Assay microplates containing A549 P300 HiBit cells were incubated for 2 hrs post treatment before P300 destruction was assessed, while microplates containing A549 CBP HiBit cells were incubated for 24 hrs post treatment before CBP destruction was determined. On the day of each assay time point, microplates were removed from the tissue culture incubator and prepared HiBit Lytic detection buffer (Promega, cat #N3O40) was added to each plate. Plates were covered with aluminum foil and incubated for ten minutes at room temperature on an orbital shaker. After incubation, luminescent signal of each plate was measured using the Envision instrument (Perkin Elmer).

T1 sequence (Q09472 whole entry): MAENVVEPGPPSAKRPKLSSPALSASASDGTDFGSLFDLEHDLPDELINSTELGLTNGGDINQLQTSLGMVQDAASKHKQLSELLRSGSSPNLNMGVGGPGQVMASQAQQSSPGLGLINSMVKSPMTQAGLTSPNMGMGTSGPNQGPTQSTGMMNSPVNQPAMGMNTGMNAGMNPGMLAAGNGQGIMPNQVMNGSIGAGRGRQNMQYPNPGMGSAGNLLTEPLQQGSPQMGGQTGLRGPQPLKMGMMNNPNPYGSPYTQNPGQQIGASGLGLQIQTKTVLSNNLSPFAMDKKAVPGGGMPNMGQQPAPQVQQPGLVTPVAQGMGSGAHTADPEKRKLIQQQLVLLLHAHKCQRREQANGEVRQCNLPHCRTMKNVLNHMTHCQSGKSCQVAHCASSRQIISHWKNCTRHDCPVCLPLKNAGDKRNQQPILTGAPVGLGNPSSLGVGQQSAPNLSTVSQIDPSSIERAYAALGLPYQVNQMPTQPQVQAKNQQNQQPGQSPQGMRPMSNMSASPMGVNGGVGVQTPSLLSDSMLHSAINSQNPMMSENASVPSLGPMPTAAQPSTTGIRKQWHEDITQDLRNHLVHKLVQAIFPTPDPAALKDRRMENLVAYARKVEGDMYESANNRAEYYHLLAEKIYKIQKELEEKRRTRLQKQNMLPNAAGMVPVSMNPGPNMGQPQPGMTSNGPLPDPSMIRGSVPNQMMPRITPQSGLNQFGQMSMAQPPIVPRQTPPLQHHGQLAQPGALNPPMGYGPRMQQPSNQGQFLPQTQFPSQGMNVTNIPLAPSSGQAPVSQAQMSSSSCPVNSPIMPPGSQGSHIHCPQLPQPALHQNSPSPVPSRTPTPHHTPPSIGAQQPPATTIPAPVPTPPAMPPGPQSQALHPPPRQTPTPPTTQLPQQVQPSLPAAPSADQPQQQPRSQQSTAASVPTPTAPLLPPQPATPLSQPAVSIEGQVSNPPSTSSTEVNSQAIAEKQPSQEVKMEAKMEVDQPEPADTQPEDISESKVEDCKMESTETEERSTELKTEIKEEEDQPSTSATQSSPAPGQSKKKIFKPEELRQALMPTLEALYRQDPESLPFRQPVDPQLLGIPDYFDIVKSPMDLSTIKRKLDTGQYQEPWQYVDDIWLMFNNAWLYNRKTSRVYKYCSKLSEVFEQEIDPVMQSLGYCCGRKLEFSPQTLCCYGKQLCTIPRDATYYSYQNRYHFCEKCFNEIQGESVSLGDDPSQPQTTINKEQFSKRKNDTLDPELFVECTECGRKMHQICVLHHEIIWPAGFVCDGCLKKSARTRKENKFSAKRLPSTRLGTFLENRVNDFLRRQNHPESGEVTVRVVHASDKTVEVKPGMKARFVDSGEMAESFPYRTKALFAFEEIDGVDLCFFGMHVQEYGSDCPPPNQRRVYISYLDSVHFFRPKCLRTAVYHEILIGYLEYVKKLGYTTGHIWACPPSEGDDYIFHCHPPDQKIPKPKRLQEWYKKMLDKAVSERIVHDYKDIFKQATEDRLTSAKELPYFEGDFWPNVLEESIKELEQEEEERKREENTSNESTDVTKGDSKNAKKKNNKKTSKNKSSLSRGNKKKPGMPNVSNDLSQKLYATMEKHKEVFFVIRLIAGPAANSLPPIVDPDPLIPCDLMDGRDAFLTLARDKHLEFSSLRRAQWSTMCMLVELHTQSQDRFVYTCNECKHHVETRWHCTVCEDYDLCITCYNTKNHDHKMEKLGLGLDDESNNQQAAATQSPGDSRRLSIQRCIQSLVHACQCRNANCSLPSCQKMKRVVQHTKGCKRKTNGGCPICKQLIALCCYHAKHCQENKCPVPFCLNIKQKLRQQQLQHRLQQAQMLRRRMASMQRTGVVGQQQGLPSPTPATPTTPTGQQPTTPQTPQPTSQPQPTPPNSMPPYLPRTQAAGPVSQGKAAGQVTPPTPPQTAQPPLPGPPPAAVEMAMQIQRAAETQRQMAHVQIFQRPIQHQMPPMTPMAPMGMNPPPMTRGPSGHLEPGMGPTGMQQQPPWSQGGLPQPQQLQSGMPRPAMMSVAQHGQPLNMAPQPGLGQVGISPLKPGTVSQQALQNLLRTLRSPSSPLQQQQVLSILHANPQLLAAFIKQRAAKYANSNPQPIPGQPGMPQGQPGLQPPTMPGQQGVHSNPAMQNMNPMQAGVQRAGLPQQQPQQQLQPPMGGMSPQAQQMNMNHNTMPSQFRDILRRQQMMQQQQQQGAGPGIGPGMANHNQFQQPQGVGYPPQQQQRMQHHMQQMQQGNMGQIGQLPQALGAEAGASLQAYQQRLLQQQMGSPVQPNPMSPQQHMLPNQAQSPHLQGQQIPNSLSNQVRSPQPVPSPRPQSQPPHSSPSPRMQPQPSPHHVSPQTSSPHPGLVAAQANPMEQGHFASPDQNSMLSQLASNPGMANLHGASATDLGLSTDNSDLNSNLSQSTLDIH

SMILES	Dmax [%]	DC50 [nM]
Cn1c(=O)n(C)c2cc(N3CC(C)(C)Oc4nc(-c5ccc(C(=O)NCC#Cc6cc7c(C8CCC(=O)NC8=O)cccc7o6)nc5)ncc43)ccc21 (stereo not drawn) [Example A264, 5-(5-(1,3-dimethyl-2-oxo-2,3-dihydro-1H-benzo[d]imidazol-5-yl)-7,7-dimethyl-6,7-dihydro-5H-pyrimido [4,5-b][1,4]oxazin-2-yl)-N-(3-(4-(2,6-dioxopiperidin-3-yl)benzofuran-2-yl)prop-2-yn-1-yl)picolinamide]	> 80	1 to 9.9
Cc1cc(N2CCN(C)c3nc(-c4ccc(C(=O)NCC#Cc5cc6c(C7CCC(=O)NC7=O)cccc6o5)nc4)ncc32)c2cc(C)c(=O)n(C)c2c1 (stereo not drawn) [Example B104, N-(3-(4-(2,6-dioxopiperidin-3-yl)benzofuran-2-yl)prop-2-yn-1-yl)-5-(8-methyl-5-(1,3,7-trimethyl-2-oxo-1,2-dihydroquinolin-5-yl)-5,6,7,8-tetrahydropteridin-2-yl)picolinamide]	> 80	1 to 9.9
Cc1cc2c(N3CCCc4nc(-c5ccc(C(=O)NCC#Cc6ccc7occ(C8CCC(=O)NC8=O)c7c6)nc5)ncc43)cc(C(C)C)cc2n(C)c1=O (stereo not drawn) [Example B125, N-(3-(3-(2,6-dioxopiperidin-3-yl)benzofuran-5-yl)prop-2-yn-1-yl)-5-(5-(7-isopropyl-1,3-dimethyl-2-oxo-1,2-dihydroquinolin-5-yl)-5,6,7,8-tetrahydropyrido[3,2-d]pyrimidin-2-yl)picolinamide]	> 80	1 to 9.9
CCC(=O)N1CCC(c2cc(N3CCCc4nc(-c5ccc(C(=O)NCC#Cc6ccc7occ(C8CCC(=O)NC8=O)c7c6)nc5)ncc43)c3cc(C)c(=O)n(C)c3c2)CC1 (stereo not drawn) [Example B52, 5-(5-(1,3-dimethyl-2-oxo-7-(1-propionyl-piperidin-4-yl)-1,2-dihydroquinolin-5-yl)-5,6,7,8-tetrahydropyrido[3,2-d]pyrimidin-2-yl)-N-(3-(3-(2,6-dioxopiperidin-3-yl)benzofuran-5-yl)prop-2-yn-1-yl)picolinamide]	> 80	< 1
Cc1cc(-c2cnc(Nc3cc(C4CCOCC4)c4c(c3)n(C)c(=O)n4C)cn2)cnc1C(=O)NCC#Cc1cc2c(C3CCC(=O)NC3=O)cccc2o1 (stereo not drawn) [Example A193]	< 20	> 1000
Cc1cc(-c2ncc3c(n2)OCCN3c2ccc3c(c2)n(C)c(=O)n3C)cnc1C(=O)NCC#Cc1ccc2occ(C34CC(C3)C(=O)NC4=O)c2c1 [Example A262, 5-(5-(1,3-dimethyl-2-oxo-2,3-dihydro-1H-benzo[d]imidazol-5-yl)-6,7-dihydro-5H-pyrimido[4,5-b] [1,4]oxazin-2-yl)-N-(3-(3-(2,4-dioxo-3-azabicyclo[3.1.1]heptan-1-yl)benzofuran-5-yl)prop-2-yn-1-yl)-3-methylpicolinamide]	> 80	10 to 99
Cc1cc(-c2cnc(N(C)c3cc(C4CCOCC4)c4c(c3)n(C)c(=O)n4C)cn2)cnc1C(=O)NCC#Cc1cc2c(C3CCC(=O)NC3=O)nccc2o1 (stereo not drawn) [Example A176, 5-(5-((1,3-dimethyl-2-oxo-7-(tetrahydro-2H-pyran-4-yl)-2,3-dihydro-1H-benzo[d]imidazol-5-yl)(methyl)amino)pyrazin-2-yl)-N-(3-(4-(2,6-dioxopiperidin-3-yl)furo[3,2-c]pyridin-2-yl)prop-2-yn-1-yl)-3-methylpicolinamide]	> 80	10 to 99
Cc1cc(-c2ncc(N(C)c3cc(C4CCN(C)CC4)c4c(c3)n(C)c(=O)n4C)cn2)cnc1C(=O)NCC#Cc1ccc2occ(C3CCC(=O)NC3=O)c2c1 (stereo not drawn) [Example A112, 5-(5-((1,3-dimethyl-7-(1-methylpiperidin-4-yl)-2-oxo-2,3-dihydro-1H-benzo [d]imidazol-5-yl)(methyl)amino)pyrimidin-2-yl)-N-(3-(3-(2,6-dioxopiperidin-3-yl)benzofuran-5-yl)prop-2-yn-1-yl)-3-methylpicolinamide]	> 80	1 to 9.9
CCc1cc(N(C)c2ccc(-c3cnc(C(=O)NCC#Cc4cccc(NC5CCC(=O)NC5=O)c4)c(C)c3)c(C)c2)c2cc(C)c(=O)n(C)c2c1 (stereo not drawn) [Example B15, N-(3-(3-((2,6-Dioxopiperidin-3-yl)amino)phenyl)prop-2-yn-1-yl)-5-(4-((7-ethyl-1,3-dimethyl-2-oxo-1,2-dihydroquinolin-5-yl)(methyl)amino)-2-methylphenyl)-3-methylpicolinamide]	> 80	10 to 99
CCc1cc(N(C)c2ccc(-c3cnc(C(=O)NCC#Cc4cccc(NC5CCC(=O)NC5=O)c4)c(C)c3)c(C(F)(F)F)c2)c2cc(C)c(=O)n(C)c2c1 (stereo not drawn) [Example B14, N-(3-(3-((2,6-Dioxopiperidin-3-yl)amino)phenyl)prop-2-yn-1-yl)-5-(4-((7-ethyl-1,3-dimethyl-2-oxo-1,2-dihydroquinolin-5-yl)(methyl)amino)-2-(trifluoromethyl)phenyl)-3-methylpicolinamide]	60 to 79	10 to 99
CN1CCN(c2ccc3c(c2)n(C)c(=O)n3C)c2cnc(-c3ccc(C(=O)NCC#Cc4cc5c(C6CCC(=O)NC6=O)nccc5o4)nc3)cc21 (stereo not drawn) [Example A218, 5-(4-(1,3-dimethyl-2-oxo-2,3-dihydro-1H-benzo[d]imidazol-5-yl)-1-methyl-1,2,3,4-tetrahydropyrido[3,4-b]pyrazin-7-yl)-N-(3-(4-(2,6-dioxo-piperidin-3-yl)furo[3,2-c]pyridin-2-yl)prop-2-yn-1-yl)picolinamide]	> 80	< 1
Cc1cc2c(N3CCOc4cc(-c5ccc(C(=O)NCC#Cc6ccc7occ(C8CCC(=O)NC8=O)c7c6)nc5)c(F)cc43)cc(F)cc2n(C)c1=O (stereo not drawn) [Example B100, N-(3-(3-(2,6-dioxopiperidin-3-yl)benzofuran-5-yl)prop-2-yn-1-yl)-5-(6-fluoro-4-(7-fluoro-1,3-dimethyl-2-oxo-1,2-dihydroquinolin-5-yl)-3,4-dihydro-2H-benzo[b][1,4]oxazin-7-yl) picolinamide]	> 80	1 to 9.9
Cc1cc2c(N3CCN(C)c4nc(-c5ccc(C(=O)NCC#Cc6cc7c(C8CCC(=O)NC8=O)cccc7o6)nc5)ncc43)cccc2n(C)c1=O (stereo not drawn) [Example B65, 5-(5-(1,3-dimethyl-2-oxo-1,2-dihydroquinolin-5-yl)-8-methyl-5,6,7,8-tetrahydropteridin-2-yl)-N-(3-(4-(2,6-dioxopiperidin-3-yl)benzofuran-2-yl)prop-2-yn-1-yl)picolinamide]	> 80	1 to 9.9
Cc1cc(-c2ccc(Nc3cc(C(C)C)c4c(c3)n(C)c(=O)n4C)cn2)cnc1C(=O)NCC#Cc1ccc2occ(C3CCC(=O)NC3=O)c2c1 (stereo not drawn) [Example A125, N-(3-(3-(2,6-dioxo-piperidin-3-yl)benzofuran-5-yl)prop-2-yn-1-yl)-5-((7-isopropyl-1,3-dimethyl-2-oxo-2,3-dihydro-1H-benzo [d]imidazol-5-yl)amino)-5′-methyl-[2,3′-bipyridine]-6′-carboxamide]	40 to 59	10 to 99
CC(C)c1cc(N2CCCc3cc(-c4ccc(C(=O)NCC#Cc5ccc6occ(C7CCC(=O)NC7=O)c6c5)nc4)c(C(F)F)cc32)cc2c1n(C)c(=O)n2C (stereo not drawn) [Example A151, 5-(7-(difluoromethyl)-1-(7-isopropyl-1,3-dimethyl-2-oxo-2,3-dihydro-1H-benzo[d]imidazol-5-yl)-1,2,3,4-tetrahydroquinolin-6-yl)-N-(3-(3-(2,6-dioxopiperidin-3-yl)benzofuran-5-yl)prop-2-yn-1-yl)picolinamide]	> 80	1 to 9.9
CC(C)c1cc(-c2cccc3cc(-c4ccc(C(=O)NCC#Cc5ccc6c(CN(C)C)nn(C7CCC(=O)NC7=O)c6c5)nc4)ncc23)cc2c1n(C)c(=O)n2C (stereo not drawn) [Example A28, N-(3-(3-((Dimethylamino)methyl)-1-(2,6-dioxopiperidin-3-yl)-1H-indazol-6-yl)prop-2-yn-1-yl)-5-(8-(7-isopropyl-1,3-dimethyl-2-oxo-2,3-dihydro-1H-benzo[d]imidazol-5-yl)isoquinolin-3-yl)picolinamide]	60 to 79	1 to 9.9
Cc1cc(-c2ncc3c(n2)OCCN3c2cc(C3CCOCC3)c3c(c2)n(C)c(=O)n3C)cnc1C(=O)NCC#Cc1cc2c(C3CCC(=O)NC3=O)cccc2o1 (stereo not drawn) [Example A252, 5-(5-(1,3-dimethyl-2-oxo-7-(tetrahydro-2H-pyran-4-yl)-2,3-dihydro-1H-benzo[d]imidazol-5-yl)-6,7-dihydro-5H-pyrimido[4,5-b][1,4]oxazin-2-yl)-N-(3-(4-(2,6-dioxopiperidin-3-yl)benzofuran-2-yl)prop-2-yn-1-yl)-3-methylpicolinamide]	> 80	1 to 9.9
Cn1c(=O)n(C)c2ncc(N3CCOc4nc(-c5ccc(C(=O)NCC#Cc6cc7c(C8CCC(=O)NC8=O)cccc7o6)nc5)ncc43)cc21 (stereo not drawn) [Example A268, 5-(5-(1,3-dimethyl-2-oxo-2,3-dihydro-1H-imidazo[4,5-b]pyridin-6-yl)-6,7-dihydro-5H-pyrimido[4,5-b] [1,4]oxazin-2-yl)-N-(3-(4-(2,6-dioxopiperidin-3-yl)benzofuran-2-yl)prop-2-yn-1-yl)picolinamide]	20 to 39	10 to 99
